What follows are compounds tested against Cannabinoid receptor 2 (Homo sapiens, UniProt P34972) (assay: Competition Binding Assay).
Excerpt: Competitive binding assay using cannabinoid receptors.

Chain of Cannabinoid receptor 2 (P34972 whole entry): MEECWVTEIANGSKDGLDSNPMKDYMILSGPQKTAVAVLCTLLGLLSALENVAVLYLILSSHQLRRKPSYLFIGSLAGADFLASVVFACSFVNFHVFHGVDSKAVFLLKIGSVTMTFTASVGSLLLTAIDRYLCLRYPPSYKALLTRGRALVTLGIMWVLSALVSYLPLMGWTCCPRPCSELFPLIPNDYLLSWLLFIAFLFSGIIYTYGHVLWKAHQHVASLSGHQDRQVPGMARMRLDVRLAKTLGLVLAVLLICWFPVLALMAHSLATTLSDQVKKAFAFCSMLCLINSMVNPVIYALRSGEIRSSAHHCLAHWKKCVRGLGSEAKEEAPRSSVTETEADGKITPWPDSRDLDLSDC

First: C#CN1CCC2=C(C1)c1c(O)cc(C(C)C(C)CCCCC)cc1OC2(C)C (stereo not drawn) [CB2 Inhibitor, 1]
Second: CCCn1c(SCC(=O)NCC2COc3ccccc3O2)nc2sc3c(c2c1=O)CCC3 (stereo not drawn) [CB2 Inhibitor, 12]
The Ki of the first is 26000-fold lower: 0.0023 µM for the first, 60.9 µM for the second. The first binds more tightly here.

Compared with Cc1cc(C)c(CNC(=O)c2cc3c(C)nn(Cc4ccc(F)cc4)c3s2)c(=O)[nH]1 [CB2 Inhibitor, 2], CC1=CC(C(=O)CN2C(=O)NC(C)(c3ccc(F)cc3)C2=O)=C(C)C1CCc1cccs1 (stereo not drawn) [CB2 Inhibitor, 11] is 260-fold higher in Ki: 0.143 µM for the first, 36.9 µM for the second. The first binds more tightly here.

Going from CC1N(C)c2ccc(P(=O)(c3ccccc3)c3ccccc3)cc2C1(C)C (stereo not drawn) [CB2 Inhibitor, 3] to CCCC(=NNC(=O)C1CC1(c1cccc(C)c1)c1cccc(C)c1)c1ccc(OC)cc1 (stereo not drawn) [CB2 Inhibitor, 10], the Ki rises from 0.54 µM to 14.7 µM (27-fold).

First: Cc1cc(C(=O)COc2ccccc2C(N)=O)c(C)n1CCC1=CCCCC1 [CB2 Inhibitor, 4]
Second: O=C(CCC(=O)N1CCC(n2c(=O)[nH]c3ccccc32)CC1)c1ccc2c(c1)CCCC2 [CB2 Inhibitor, 8]
The Ki of the first is 9.2-fold lower: 0.96 µM for the first, 8.83 µM for the second.

First: COc1ccc(CN2CCCn3c4c(c5cc(C)ccc53)CCCC42)cc1O (stereo not drawn) [CB2 Inhibitor, 5]
Second: CC1CCCN(Cc2cc(-c3ccc4c(c3)OCO4)ccc2OCC(=O)NCc2ccccc2F)C1 (stereo not drawn) [CB2 Inhibitor, 6]
The Ki of the first is 1.9-fold lower: 2.36 µM for the first, 4.44 µM for the second.

Compared with c1ccc2c(c1)CCCC2Nc1nc(CN2CCCCC2)nc2sc3c(c12)CCCC3 (stereo not drawn) [CB2 Inhibitor, 7], CN(C)C(CNC(=O)C1(Cc2ccccc2)CCCCC1)c1cccs1 (stereo not drawn) [CB2 Inhibitor, 13] is 15-fold higher in Ki: 4.78 µM for the first, 71.4 µM for the second. The first binds more tightly here.

Work on CCC(CC)S(=O)(=O)c1cccc(-c2nnc(SCCN(C)C)n2C2CCCCCC2)c1 [CB2 Inhibitor, 9] yielded a Ki of 9.27 µM.
